# Measured values as given in PubChem BioAssay (NCI).
#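 The compound was tested at five concentrations on cells cultured in 96-well plates, with a 48-hour exposure period. GI50 = concentration required for 50% inhibition of growth. TGI denotes the concentration required for complete inhibition of growth.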
# Experiments:
# Assay in all cases: NCI tumour cell line growth inhibition, 48 h
# SF-539 CNS = test system: SF-539 CNS
# KM12 colon = test system: KM12 colon
# HCC-2998 colon = test system: HCC-2998 colon
# SNB-19 CNS = test system: SNB-19 CNS
# M14 melanoma = test system: M14 melanoma
# EKVX NSCLC = test system: EKVX NSCLC
# OVCAR-5 ovarian = test system: OVCAR-5 ovarian
# HCT-15 colon = test system: HCT-15 colon
# RPMI-8226 leukemia = test system: RPMI-8226 leukemia
# SF-295 CNS = test system: SF-295 CNS
# UO-31 renal = test system: UO-31 renal
# A549 NSCLC = test system: A549 NSCLC
# SK-OV-3 ovarian = test system: SK-OV-3 ovarian
# HL-60(TB) leukemia = test system: HL-60(TB) leukemia
# BT-549 breast = test system: BT-549 breast
# NCI-H522 lung = test system: NCI-H522 lung
# DU-145 prostate = test system: DU-145 prostate
# SF-268 CNS = test system: SF-268 CNS
# SK-MEL-5 melanoma = test system: SK-MEL-5 melanoma
# MDA-MB-435 = test system: MDA-MB-435
# K-562 leukemia = test system: K-562 leukemia
# MCF7 breast = test system: MCF7 breast
# OVCAR-3 ovarian = test system: OVCAR-3 ovarian
# PC-3 prostate = test system: PC-3 prostate
# MDA-MB-468 breast = test system: MDA-MB-468 breast
# NCI-H23 lung = test system: NCI-H23 lung
# HOP-62 NSCLC = test system: HOP-62 NSCLC
# UACC-257 melanoma = test system: UACC-257 melanoma
# HT29 colon = test system: HT29 colon
# ACHN renal = test system: ACHN renal
smiles,measurement,setting,value
CN(C(=O)c1ccc(C(C)(C)C)cc1)c1sc2c(c1C#N)CCC(=O)C2,GI50,SF-539 CNS,1.77 µM
same,TGI,SF-539 CNS,3.42 µM
same,GI50,KM12 colon,3.97 µM
same,TGI,KM12 colon,14.6 µM
same,GI50,HCC-2998 colon,5.09 µM
same,TGI,HCC-2998 colon,16.6 µM
same,GI50,SNB-19 CNS,3.7 µM
same,TGI,SNB-19 CNS,14.7 µM
same,GI50,M14 melanoma,3.57 µM
same,TGI,M14 melanoma,12.8 µM
same,GI50,EKVX NSCLC,3.49 µM
same,TGI,EKVX NSCLC,14 µM
same,GI50,OVCAR-5 ovarian,14 µM
same,TGI,OVCAR-5 ovarian,27.6 µM
same,GI50,HCT-15 colon,2.04 µM
same,TGI,HCT-15 colon,4.13 µM
same,GI50,RPMI-8226 leukemia,2.93 µM
same,GI50,SF-295 CNS,3.45 µM
same,TGI,SF-295 CNS,14 µM
same,GI50,UO-31 renal,2.94 µM
same,TGI,UO-31 renal,11.2 µM
same,GI50,A549 NSCLC,16.8 µM
same,TGI,A549 NSCLC,35.3 µM
same,GI50,SK-OV-3 ovarian,17.9 µM
same,TGI,SK-OV-3 ovarian,34.1 µM
same,GI50,HL-60(TB) leukemia,8.84 µM
same,TGI,HL-60(TB) leukemia,30.3 µM
same,GI50,BT-549 breast,1.98 µM
same,TGI,BT-549 breast,4.88 µM
same,GI50,NCI-H522 lung,1.75 µM
same,TGI,NCI-H522 lung,3.45 µM
same,GI50,DU-145 prostate,16.7 µM
same,TGI,DU-145 prostate,33.4 µM
same,GI50,SF-268 CNS,4.79 µM
same,TGI,SF-268 CNS,24.3 µM
same,GI50,SK-MEL-5 melanoma,2.07 µM
same,TGI,SK-MEL-5 melanoma,4.63 µM
same,GI50,MDA-MB-435,5.8 µM
same,TGI,MDA-MB-435,21.1 µM
same,GI50,K-562 leukemia,3.17 µM
same,TGI,K-562 leukemia,10.7 µM
same,GI50,MCF7 breast,11.8 µM
same,TGI,MCF7 breast,32 µM
same,GI50,OVCAR-3 ovarian,2.43 µM
same,TGI,OVCAR-3 ovarian,5.9 µM
same,GI50,PC-3 prostate,2.72 µM
same,TGI,PC-3 prostate,8.32 µM
same,GI50,MDA-MB-468 breast,2.27 µM
same,TGI,MDA-MB-468 breast,5.63 µM
same,GI50,NCI-H23 lung,2.42 µM
same,TGI,NCI-H23 lung,6.56 µM
same,GI50,HOP-62 NSCLC,15.2 µM
same,TGI,HOP-62 NSCLC,32.1 µM
same,GI50,UACC-257 melanoma,18 µM
same,TGI,UACC-257 melanoma,33.7 µM
same,GI50,HT29 colon,17.8 µM
same,TGI,HT29 colon,41 µM
same,GI50,ACHN renal,3.2 µM
